Reference: ChEMBL document CHEMBL3621069 (Bioorg Med Chem Lett, 2015)

Columns and labels:
[1] = target: T1, Tyrosine-protein kinase ZAP-70 (Homo sapiens, UniProt P43403); test: Inhibition of purified full-length human ZAP70 pre-incubated for 30 mins at room temperature before UlighTM-PolyGT peptide substrate addition and measured 1 hr after substrate addition by cell free kinase assay
T1 sequence (P43403 whole entry): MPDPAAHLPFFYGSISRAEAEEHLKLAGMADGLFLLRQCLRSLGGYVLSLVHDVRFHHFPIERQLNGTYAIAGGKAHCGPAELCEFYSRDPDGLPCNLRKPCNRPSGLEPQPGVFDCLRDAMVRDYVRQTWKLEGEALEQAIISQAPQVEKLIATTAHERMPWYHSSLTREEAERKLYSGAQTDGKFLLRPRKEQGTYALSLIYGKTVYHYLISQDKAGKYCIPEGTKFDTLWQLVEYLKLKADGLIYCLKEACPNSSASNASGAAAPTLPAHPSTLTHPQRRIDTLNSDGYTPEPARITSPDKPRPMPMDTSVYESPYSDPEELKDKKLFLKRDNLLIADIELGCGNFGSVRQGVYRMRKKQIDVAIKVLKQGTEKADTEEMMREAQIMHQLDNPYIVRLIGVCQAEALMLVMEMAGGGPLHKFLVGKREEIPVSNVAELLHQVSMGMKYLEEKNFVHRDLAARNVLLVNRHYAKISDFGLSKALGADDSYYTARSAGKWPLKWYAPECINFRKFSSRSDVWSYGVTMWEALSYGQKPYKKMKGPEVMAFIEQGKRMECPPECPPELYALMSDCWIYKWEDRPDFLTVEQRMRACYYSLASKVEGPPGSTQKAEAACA

[2] = target: T2, Tyrosine-protein kinase JAK3 (Homo sapiens, UniProt P52333); test: Inhibition of JAK3 (unknown origin) pre-incubated for 30 mins at room temperature before substrate addition and measured 1 hr after substrate addition by cell free kinase assay
T2 sequence (P52333 whole entry): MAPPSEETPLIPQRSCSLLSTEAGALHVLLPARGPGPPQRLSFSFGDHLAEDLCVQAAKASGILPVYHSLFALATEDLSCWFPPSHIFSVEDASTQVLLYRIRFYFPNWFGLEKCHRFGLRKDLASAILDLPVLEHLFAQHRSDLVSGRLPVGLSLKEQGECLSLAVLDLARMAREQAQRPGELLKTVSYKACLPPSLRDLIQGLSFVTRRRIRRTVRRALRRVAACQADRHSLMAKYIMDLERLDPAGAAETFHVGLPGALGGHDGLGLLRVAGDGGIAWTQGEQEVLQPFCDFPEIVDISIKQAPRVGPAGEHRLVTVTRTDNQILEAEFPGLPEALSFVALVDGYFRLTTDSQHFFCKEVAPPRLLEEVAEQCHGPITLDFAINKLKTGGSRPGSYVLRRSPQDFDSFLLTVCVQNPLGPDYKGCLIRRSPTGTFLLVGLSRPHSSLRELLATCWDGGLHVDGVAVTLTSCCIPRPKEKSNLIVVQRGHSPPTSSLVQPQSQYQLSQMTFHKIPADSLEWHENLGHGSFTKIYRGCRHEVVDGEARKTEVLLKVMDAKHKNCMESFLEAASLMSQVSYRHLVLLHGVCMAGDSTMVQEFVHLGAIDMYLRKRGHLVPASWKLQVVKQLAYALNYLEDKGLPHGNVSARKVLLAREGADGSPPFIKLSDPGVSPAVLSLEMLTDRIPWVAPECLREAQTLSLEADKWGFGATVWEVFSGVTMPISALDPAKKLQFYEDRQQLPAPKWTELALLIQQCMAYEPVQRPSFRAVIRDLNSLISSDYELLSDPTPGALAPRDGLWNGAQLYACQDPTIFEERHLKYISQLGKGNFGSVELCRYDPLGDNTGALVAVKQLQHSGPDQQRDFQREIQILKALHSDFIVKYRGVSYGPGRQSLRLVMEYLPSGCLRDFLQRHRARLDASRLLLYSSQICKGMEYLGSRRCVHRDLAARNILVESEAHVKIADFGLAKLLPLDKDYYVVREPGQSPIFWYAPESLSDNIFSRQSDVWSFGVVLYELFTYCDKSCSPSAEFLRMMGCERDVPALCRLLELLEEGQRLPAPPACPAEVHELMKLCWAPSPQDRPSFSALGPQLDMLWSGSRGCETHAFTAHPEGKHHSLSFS

[3] = Stability in human liver microsomes; type: ADME; details: read-out: Stability
[4] = Apparent permeability from basolateral to apical side in human Caco2 cells; type: ADME, cell-based; details: Caco-2
Plasma = test: Unbound fraction in human plasma; type: ADME, cell-free
Salmonella typhimurium [5] = test: Genotoxicity in Salmonella typhimurium TA98 at 5000 µg/plate in presence of liver S9 fraction by Ames test; type: toxicity, organism-based; details: salmonella enterica subsp. enterica serovar typhimurium
Salmonella typhimurium [6] = test: Genotoxicity in Salmonella typhimurium TA100 at 5000 µg/plate in presence of liver S9 fraction by Ames test; type: toxicity, organism-based; details: salmonella enterica subsp. enterica serovar typhimurium
Salmonella typhimurium [7] = test: Genotoxicity in Salmonella typhimurium TA100 at 5000 µg/plate in absence of liver S9 fraction by Ames test; type: toxicity, organism-based; details: salmonella enterica subsp. enterica serovar typhimurium
Salmonella typhimurium [8] = test: Genotoxicity in Salmonella typhimurium TA1537 at 5000 µg/plate in presence of liver S9 fraction by Ames test; type: toxicity, organism-based; details: salmonella enterica subsp. enterica serovar typhimurium
Escherichia coli [9] = test: Genotoxicity in Escherichia coli WP2 uvrA at 5000 µg/plate in presence of liver S9 fraction by Ames test; type: toxicity, organism-based
Salmonella typhimurium [10] = test: Mutagenicity in Salmonella typhimurium TA98 at 5000 µg/plate in presence of liver S9 fraction by Ames test; type: toxicity, organism-based; details: salmonella enterica subsp. enterica serovar typhimurium
Salmonella typhimurium [11] = test: Mutagenicity in Salmonella typhimurium TA98 at 5000 µg/plate in absence of liver S9 fraction by Ames test; type: toxicity, organism-based; details: salmonella enterica subsp. enterica serovar typhimurium
Salmonella typhimurium [12] = test: Mutagenicity in Salmonella typhimurium TA100 at 5000 µg/plate in presence of liver S9 fraction by Ames test; type: toxicity, organism-based; details: salmonella enterica subsp. enterica serovar typhimurium
Salmonella typhimurium [13] = test: Mutagenicity in Salmonella typhimurium TA100 at 5000 µg/plate in absence of liver S9 fraction by Ames test; type: toxicity, organism-based; details: salmonella enterica subsp. enterica serovar typhimurium
Salmonella typhimurium [14] = test: Mutagenicity in Salmonella typhimurium TA1535 at 5000 µg/plate in presence of liver S9 fraction by Ames test; type: toxicity, organism-based; details: salmonella enterica subsp. enterica serovar typhimurium
Salmonella typhimurium [15] = test: Mutagenicity in Salmonella typhimurium TA1535 at 5000 µg/plate in absence of liver S9 fraction by Ames test; type: toxicity, organism-based; details: salmonella enterica subsp. enterica serovar typhimurium
Salmonella typhimurium [16] = test: Mutagenicity in Salmonella typhimurium TA1537 at 5000 µg/plate in presence of liver S9 fraction by Ames test; type: toxicity, organism-based; details: salmonella enterica subsp. enterica serovar typhimurium
Escherichia coli [17] = test: Mutagenicity in Escherichia coli WP2 uvrA at 5000 µg/plate in presence of liver S9 fraction by Ames test; type: toxicity, organism-based
Salmonella typhimurium [18] = test: Mutagenicity in Salmonella typhimurium TA1537 at 5000 µg/plate in absence of liver S9 fraction by Ames test; type: toxicity, organism-based; details: salmonella enterica subsp. enterica serovar typhimurium
[19] = Clearance in Sprague-Dawley rat at 10 mg/kg, po; type: ADME, organism-based; details: in vivo
Rattus norvegicus = test: Volume of distribution at steady state in Sprague-Dawley rat at 10 mg/kg, po; type: ADME, organism-based; details: in vivo
[20] = Terminal half life in Sprague-Dawley rat at 10 mg/kg, po; type: ADME, organism-based; details: in vivo, read-out: beta t1/2 (converted)
[21] = Oral bioavailability in Sprague-Dawley rat at 10 mg/kg; type: ADME, organism-based; details: in vivo
[22] = AUClast in Sprague-Dawley rat at 10 mg/kg; type: ADME, organism-based; design: dose 10 mg/kg, time 0 - last; details: in vivo

IC50 [1] [µM]	IC50 [2] [nM]	half-life [3] [min]	Papp B→A [4] [×10⁻⁶ cm/s]	Fu (Plasma) [%]	CL/F [19] [mL/min/kg]	Structure (SMILES)	Activity (Salmonella typhimurium [5])	Activity (Salmonella typhimurium [6])	Activity (Salmonella typhimurium [7])	Activity (Salmonella typhimurium [8])	Activity (Escherichia coli [9])	Activity (Salmonella typhimurium [10])	Activity (Salmonella typhimurium [11])	Activity (Salmonella typhimurium [12])	Activity (Salmonella typhimurium [13])	Activity (Salmonella typhimurium [14])	Activity (Salmonella typhimurium [15])	Activity (Salmonella typhimurium [16])	Activity (Escherichia coli [17])	Activity (Salmonella typhimurium [18])	further results
53.8	78.1	> 60	3.8	< 0.4	26	Cc1nn(-c2ccnc(Nc3ccc4c(c3)c(Cl)c(C)n4C)n2)cc1CN1CC(O)C1	Non-toxic	Non-toxic	Non-toxic	Non-toxic	Non-toxic	Non-toxic	Non-toxic	Non-toxic	Non-toxic	Non-toxic	Non-toxic	Non-toxic	Non-toxic	Non-toxic	Vdss (Rattus norvegicus): 3.3 L/kg; half-life [20]: 216 min; bioavailability [21]: 28.4%; AUC(0-t) [22]: 3230 ng·h/mL
996	418	> 60	9.9	< 0.4	21	Cc1nn(-c2ccnc(Nc3ccc4c(c3)c(C)c(C)n4C)n2)cc1CN1CC(O)C1	Non-toxic	Non-toxic	Non-toxic	Non-toxic	Non-toxic	Non-toxic	Non-toxic	Non-toxic	Non-toxic	Non-toxic	Non-toxic	Non-toxic	Non-toxic	Non-toxic	Vdss (Rattus norvegicus): 3.7 L/kg; half-life [20]: 204 min; bioavailability [21]: 61%; AUC(0-t) [22]: 4000 ng·h/mL
